The target in series [1] is cDNA-expressed human hepatic CYP3A4 (Homo sapiens (Human), UniProt P08684). As to the kind of experiment: Measurement of CYP (IC50 of P450 CYP3A4), BFC substrate. In kind it is in vitro ADME. Conditions: 20 minutes. The method, boiled down:
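cDNA-expressed human CYP3A4 supersomes in 0.1M potassium phosphate pH 7.4 with 8.3 mM MgCl2, 1.67 mM EDTA and 0.25 mM NADPH; compounds in acetonitrile (<1% final). Reaction started with 30 µM BFC, 20 min at 37. 7-Hydroxy-4-trifluoromethyl-coumarin read by fluorescence (ex 409/em 530 nm).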

A short description of series [2]: MLM, hepatic metabolic stability. As to conditions: mouse hepatic microsome, amount at 30 minutes compared with 0 minutes. In kind it is in vitro ADME. The method, then:
For the sake of retaining efficacy of novel drugs and preventing side-effects, hepatic metabolic stability is regarded as very important. Hepatic metabolic stability is typically determined using microsome or S9. In the present test, a microsome having CYP450 as a main component, which plays a great role in metabolism, was used to evaluate the metabolic stability.
This assay was performed in a 200 l volume in a 13 ml glass tube using mouse hepatic microsome whose activity was measured.
The compounds of Examples 1 to 5 were dissolved in DMSO (dimethyl sulfoxide) to prepare a 25 mM stock solution, which was then diluted with 50% acetonitrile and used in the test. A potassium phosphate buffer (pH 7.4, final concentration 0.1M), MgCl2 (final concentration 0.1M), a diluted inventive compound stock solution (final concentration 1 mM), and a mouse microsome (final concentration 5 mg/ml) were added to the glass tube. The reaction was initiated by the addition of a cofactor NADPH (final concentration 12.5 mM) after pre-incubation at 37 for 3 minutes. The reaction was carried out at 37 for 10 minutes and 30 minutes, and then terminated with 1000 μl of acetonitrile, and the remaining inventive compound was extracted. The centrifugation was conducted at 3000 rpm for 10 minutes, after which the supernatant was dried and dissolved again in 150 μl of 50% acetonitrile and quantitatively analyzed by HPLC. 0 minutes and 30 minutes after reaction, the amounts of the compounds of the present invention were compared thus evaluating the extent of metabolic stability.

Series [3] has as its system MV-4-11 (human, Acute Myeloid Leukemia cell line) cells. As to the kind of experiment: Cell growth inhibition assay, GI50 of MV-4-11. Format: cell-based. Conditions: Homo sapiens, MV4-11, 72 h, MV-4-11 cells. The method, boiled down:
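GI50 derived from 490 nm absorbance using CellTiter 96 Aqueous One reagent, with compound-free medium providing the background. Human AML MV-4-11 cells, seeded at 5×10^4 per well in IMDM/10% FBS, incubated 72 h at 37 °C with duplicate serial dilutions of test compound.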

A short description of series [4]: Solubility in physiological saline. As to conditions: saline or isotonic, thermodynamic from solid, 10 mg in 0.25 ml. In kind it is physicochemical. As to the method:
2) Evaluation of Solubility of Compound E-5
Compound E-5, Compound E-5•HCl, and Compound E-5•H2SO4 were respectively weighed to 10 mg, and 0.25 ml of physiological saline was added, and they were vortex mixed. The supernatant was filtered with a 0.22 μm filter and quantitatively analyzed by HPLC.

Series [5] in a line: Blood drug concentration upon intravenous administration. Format: in vivo. As to conditions: SD rat, 12.5 mg/kg. As to the method:
Compound E-5 was intravenously injected in 12.5 mg/kg to SD rat. 5, 15, 30, […], 120, 240, 1140 minutes after injection, the blood was taken and the drug concentration in the blood was quantitatively analyzed using an analyzer HPLC/MS/MS.

Converted amounts (≈) assume the structure as drawn.

cDNA-expressed human hepatic CYP3A4, sequence (P08684 whole entry): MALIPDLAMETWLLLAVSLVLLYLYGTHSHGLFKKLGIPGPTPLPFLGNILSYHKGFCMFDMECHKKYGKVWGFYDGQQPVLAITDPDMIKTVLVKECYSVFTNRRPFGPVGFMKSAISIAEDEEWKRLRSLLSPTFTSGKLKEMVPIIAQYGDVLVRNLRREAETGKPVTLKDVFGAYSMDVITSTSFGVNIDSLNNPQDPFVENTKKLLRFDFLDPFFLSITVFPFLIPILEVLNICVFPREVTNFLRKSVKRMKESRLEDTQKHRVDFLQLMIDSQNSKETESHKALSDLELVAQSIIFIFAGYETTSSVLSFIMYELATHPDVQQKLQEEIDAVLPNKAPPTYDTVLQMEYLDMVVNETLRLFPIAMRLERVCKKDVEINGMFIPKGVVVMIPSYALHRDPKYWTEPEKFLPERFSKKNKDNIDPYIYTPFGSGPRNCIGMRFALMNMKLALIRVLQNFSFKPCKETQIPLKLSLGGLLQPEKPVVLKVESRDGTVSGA

In series [1], `C=CCN1CC(=O)N2[C@@H](Cc3ccc(O)cc3)C(=O)N(Cc3cccc4c(-c5ccc(NC(=O)Nc6ccccc6)cc5)cn(C)c34)C[C@@H]2N1C(=O)NCc1ccccc1` [Compound D-73] registered a concentration for half-maximal inhibition (IC50) greater than 25 µM. In addition, the “MLM (%)” value in series [2] is 73.4%. For the same molecule, halving of growth in series [3] (GI50) required 14.4 nM.
The corresponding values for `C=CCN1CC(=O)N2[C@@H](Cc3ccc(O)cc3)C(=O)N(Cc3cccc4c(-c5ccc(C(=O)Nc6ccc(N7CCN(C(C)=O)CC7)cc6)cc5)cn(C)c34)C[C@@H]2N1C(=O)NCc1ccccc1` [Compound D-10] are greater than 25 µM, 88% and 1.3 nM.
The corresponding values for `C=CCN1CC(=O)N2[C@@H](Cc3ccc(O)cc3)C(=O)N(Cc3cccc4c(-c5ccc(NC(=O)Nc6ccccc6)nc5)cn(C)c34)C[C@@H]2N1C(=O)NCc1ccccc1` [Compound C, (6S,9aS)-2-allyl-N-benzyl-6-(4-hydroxybenzyl)-8-((1-methyl-3-(6-(3-phenylureido)pyridine-3-yl)-1H-indol-7-yl)methyl)-4,7-dioxooctahydro-1H-pyrazino[2,1-c][1,2,4]-triazine-1-carboxamide] are greater than 25 µM, 64% and 9.5 nM.
In the case of `C=CCN1CC(=O)N2[C@@H](Cc3ccc(O)cc3)C(=O)N(Cc3cccc4c(-c5ccc(NC(=O)NC6CCCCC6)cc5)cn(C)c34)C[C@@H]2N1C(=O)NCc1ccccc1` [Compound D-74], the IC50 in series [1] was greater than 25 µM. Moreover, the “MLM (%)” value in series [2] was 56.9%. Halving of growth in series [3] (GI50) required 11.2 nM.
Consider `C=CCN1CC(=O)N2[C@@H](Cc3ccc(O)cc3)C(=O)N(Cc3cccc4c(-c5ccc(NC(=S)NC(=O)c6ccccc6)nc5)cn(C)c34)C[C@@H]2N1C(=O)NCc1ccccc1` [Compound H-5], for which, in series [1], the half-inhibitory concentration (IC50) was greater than 25 µM. The “MLM (%)” value in series [2] was 74%.
`C=CCN1CC(=O)N2[C@@H](Cc3ccc(O)cc3)C(=O)N(Cc3cccc4c(-c5ccc(NC(=O)Nc6ccc(OC)nc6)cc5)cn(C)c34)C[C@@H]2N1C(=O)NCc1ccccc1` [Compound D-77] came in with a half-inhibitory concentration (IC50) in series [1] greater than 25 µM. In addition, the “MLM (%)” value in series [2] was determined as 65.4%. In addition, the GI50 in series [3] turned out to be 6.5 nM.
The corresponding values for `C=CCN1CC(=O)N2[C@@H](Cc3ccc(O)cc3)C(=O)N(Cc3cccc4c(-c5ccc(NC(=O)c6ccc(N)nc6)cc5)cn(C)c34)C[C@@H]2N1C(=O)NCc1ccccc1` [Compound D-69] are greater than 25 µM, 65% and 1.1 nM.
On the same counts, the results for `C=CCN1CC(=O)N2C(Cc3ccc(O)cc3)C(=O)N(Cc3cccc4c(C(=O)Nc5ccc(N6CCN(c7ccccc7OC)CC6)nc5)cn(C)c34)CC2N1C(=O)NCc1ccccc1` (centres unmarked) [Compound G-59] are greater than 25 µM, 61.9% and 4.9 nM.
Molecule `C=CCN1CC(=O)N2[C@@H](Cc3ccc(O)cc3)C(=O)N(Cc3cccc4c(-c5ccc(NC(=O)Nc6ccc(OC)nc6)cc5)cn(C)c34)C[C@@H]2N1C(=O)NCc1ccccc1` [Compound B, (6S,9aS)-2-allyl-N-benzyl-6-(4-hydroxybenzyl)-8-((3-(4-(3-(6-methoxypyridin-3-yl)ureido)phenyl)-1-methyl-1H-indol-7-yl)methyl)-4,7-dioxooctahydro-1H-pyrazino[2,1-c][1,2,4]-triazine-1-carboxamide] had a concentration for half-maximal inhibition (IC50) in series [1] greater than 25 µM. Besides, the “MLM (%)” value in series [2] was found to be 65%. This molecule registered a 50% growth inhibitory concentration (GI50) in series [3] of 6.5 nM.
For `C=CCN1CC(=O)N2[C@@H](Cc3ccc(O)cc3)C(=O)N(Cc3cccc4c(C(=O)NCCCC(=O)O)cn(C)c34)C[C@@H]2N1C(=O)NCc1ccccc1` [Compound F-24], the half-inhibitory concentration (IC50) in series [1] was greater than 25 µM. In series [2], the “MLM (%)” value stood at 84.2%.
For `C=CCN1CC(=O)N2[C@@H](Cc3ccc(O)cc3)C(=O)N(Cc3cccc4c(-c5ccc(C(=O)NC6CCC(NC(=O)OC(C)(C)C)CC6)cc5)cn(C)c34)C[C@@H]2N1C(=O)NCc1ccccc1` (stereo partly drawn) [Compound D-31], the IC50 in series [1] was greater than 25 µM. Also, in series [2], the “MLM (%)” value is reported as 107%. The molecule also displayed a concentration for 50% growth inhibition (GI50) in series [3] of 1.5 nM.
In series [1], `C=CCN1CC(=O)N2[C@@H](Cc3ccc(O)cc3)C(=O)N(Cc3cccc4c(C(=O)N5CCN(CCCN(C)C)CC5)cn(C)c34)C[C@@H]2N1C(=O)NCc1ccccc1` [Compound E-13] displayed an IC50 greater than 25 µM. The “MLM (%)” value in series [2] amounted to 89.1%.
On the same counts, the results for `C=CCN1CC(=O)N2[C@@H](Cc3ccc(O)cc3)C(=O)N(Cc3cccc4c(C(=O)N5CCC(N6CCN(C)CC6)CC5)cn(C)c34)C[C@@H]2N1C(=O)NCc1ccccc1` [Compound E-19] are greater than 25 µM and 73.4%.
For the molecule `C=CCN1CC(=O)N2C(CN(Cc3cccc4c(C(=O)Nc5ccc(N6CCOCC6)nc5)cn(C)c34)C(=O)[C@@H]2Cc2ccc(O)cc2)N1C(=O)NCc1ccccc1` (some centres unmarked) [Compound G-36], in series [1], the IC50 worked out at 21.1 µM. In addition, the “MLM (%)” value in series [2] is 36%. The molecule further yielded a GI50 in series [3] of 1.3 nM.
The corresponding values for `C=CCN1CC(=O)N2[C@@H](Cc3ccc(O)cc3)C(=O)N(Cc3cccc4c(-c5ccc(C(=O)NN6CCN(C)CC6)cc5)cn(C)c34)C[C@@H]2N1C(=O)NCc1ccccc1` [Compound D-45] are 2.51 µM, 49.4% and 1.9 nM.
In the case of `C=CCN1CC(=O)N2C(Cc3ccc(O)cc3)C(=O)N(Cc3cccc4c(C(=O)Nc5ccc(N6CCN(Cc7ccc(OC)cc7)CC6)nc5)cn(C)c34)CC2N1C(=O)NCc1ccccc1` (centres unmarked) [Compound G-60], the IC50 in series [1] worked out at 21.5 µM. Moreover, the “MLM (%)” value in series [2] is 52.8%. This molecule came in with a concentration for 50% growth inhibition (GI50) in series [3] of 6.5 nM.
For `C=CCN1CC(=O)N2[C@@H](Cc3ccc(O)cc3)C(=O)N(Cc3cccc4c(C(=O)N5CCC(NC(=O)c6ccc(N(C)C)cc6)CC5)cn(C)c34)C[C@@H]2N1C(=O)NCc1ccccc1` [Compound E-59], the IC50 in series [1] is greater than 25 µM. In addition, the “MLM (%)” value in series [2] is 58.5%.
The molecule `C=CCN1CC(=O)N2[C@@H](Cc3ccc(O)cc3)C(=O)N(Cc3cccc4c(C(=O)N5CCN(CC)CC5)cn(C)c34)C[C@@H]2N1C(=O)NCc1ccccc1` [Compound E-5, (6S,9aS)-2-allyl-N-benzyl-8-((3-(4-ethylpiperazine-1-carbonyl)-1-methyl-1H-indol-7-yl)methyl)-6-(4-hydroxybenzyl)-4,7-dioxooctahydro-1H-pyrazino[2,1-c][1,2,4]-triazine-1-carboxamide] had a solubility in series [4] of 68 µg/mL (≈ 92.8 µM). Also, the AUC in series [5] worked out at 4530 ng·h/mL. In addition, in series [5] (read-out: Half-life (t ½, hr) (converted)), the half-life was 1.59 h. Half-maximal inhibition in series [1] (IC50) was put at 8.04 µM. The concentration for 50% growth inhibition (GI50) in series [3] was 11.6 nM.
On to `C=CCN1CC(=O)N2[C@@H](Cc3ccc(O)cc3)C(=O)N(Cc3cccc4c(C(=O)N5CCN(CC6CCNCC6)CC5)cn(C)c34)C[C@@H]2N1C(=O)NCc1ccccc1` [Compound E-23], for which the half-maximal inhibitory concentration (IC50) in series [1] was determined as 8.17 µM. Moreover, in series [2], the “MLM (%)” value came to 73.8%.
`C=CCN1CC(=O)N2[C@@H](Cc3ccc(O)cc3)C(=O)N(Cc3cccc4c(-c5ccc(NC(=S)NC(=O)OCC)nc5)cn(C)c34)C[C@@H]2N1C(=O)NCc1ccccc1` [Compound H-4]: in series [1], the IC50 was greater than 25 µM. Further, in series [2], the “MLM (%)” value is reported as 66.8%. The molecule also returned a GI50 in series [3] of 15 nM.
In the case of `C=CCN1CC(=O)N2[C@@H](Cc3ccc(O)cc3)C(=O)N(Cc3cccc4c(-c5ccc(NC(=O)Nc6ccccc6)nc5)cn(C)c34)C[C@@H]2N1C(=O)NCc1ccccc1` [Compound D-85], in series [1], the IC50 is greater than 25 µM. For the same molecule, the “MLM (%)” value in series [2] stood at 64.3%. Also, the GI50 in series [3] amounted to 9.5 nM.
The corresponding values for `C=CCN1CC(=O)N2[C@@H](Cc3ccc(O)cc3)C(=O)N(Cc3cccc4c(-c5ccc(NC(=O)NCc6ccccc6)nc5)cn(C)c34)C[C@@H]2N1C(=O)NCc1ccccc1` [Compound D-93] are 20.4 µM, 68.5% and 16.1 nM.
The corresponding values for `C=CCN1CC(=O)N2[C@@H](Cc3ccc(O)cc3)C(=O)N(Cc3cccc4c(C(=O)Nc5ccc(N6CCCCC6)nc5)cn(C)c34)C[C@@H]2N1C(=O)NCc1ccccc1` [Compound G-35] are 12.2 µM, 34.9% and 1.4 nM.

As usually defined, the IC50 is the concentration that inhibits the measured activity by half. Higher therefore signals weaker potency in that assay. Broadly, the GI50 is the concentration at which growth is held to half of that of the control. High values mean lower sensitivity of the cells, low ones greater sensitivity of the cells. Broadly, the solubility is the dissolved amount per volume that the medium holds. Low values mean a poorly soluble substance, high ones a readily soluble substance. By AUC is commonly meant the area under the concentration-time curve, a measure of exposure. A lower AUC goes with low exposure. One may read the half-life as how long it takes for the measured level to halve.

These data come from patent US8940739B2, “Compound of a reverse-turn mimetic and a production method and use therefor” (JW Pharmaceutical Corporation, priority 2010, dated 2015).
